Assay results: article PMC7605239 (Cell, 2020)
Where two headings read alike, the source gives them in different places.

Key:
[1] = target: T1, CR518 (chemotactile receptor 518) (Octopus bimaculoides, UniProt A0A0L8FVQ9); test: whole-cell patch clamp dose-response; assay type: cell-based
T1 sequence (A0A0L8FVQ9 21-399): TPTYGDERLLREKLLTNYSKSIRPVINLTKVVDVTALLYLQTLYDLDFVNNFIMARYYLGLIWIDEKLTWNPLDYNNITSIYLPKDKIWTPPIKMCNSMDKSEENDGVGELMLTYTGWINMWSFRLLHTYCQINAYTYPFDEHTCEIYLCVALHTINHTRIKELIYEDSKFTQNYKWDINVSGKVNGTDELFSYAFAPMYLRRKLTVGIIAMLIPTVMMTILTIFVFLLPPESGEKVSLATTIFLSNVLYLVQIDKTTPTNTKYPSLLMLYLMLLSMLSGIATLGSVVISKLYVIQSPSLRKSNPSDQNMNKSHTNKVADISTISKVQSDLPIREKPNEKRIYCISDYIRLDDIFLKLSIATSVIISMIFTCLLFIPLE

[2] = system: CR840 (chemotactile receptor 840); test: whole-cell patch clamp dose-response; assay type: cell-based, Octopus bimaculoides
[3] = target: T1, CR518 (chemotactile receptor 518); test: whole-cell patch clamp dose-response; assay type: cell-based; remark: listed apart in the source
[4] = target: T1, CR518 (chemotactile receptor 518); test: whole-cell patch clamp screen; assay type: cell-based

| Structure (SMILES) | EC50 [1] | EC50 [3] | also measured |
| --- | --- | --- | --- |
| C=C1CCC[C@]2(C)Cc3occ(C)c3C[C@@H]12 [atractylon] | 29.4 µM |  |  |
| CCN(CC)CCCC(C)Nc1ccnc2cc(Cl)ccc12 (stereo not drawn) [chloroquine] | 92.3 µM |  | EC50 [2]: 10.3 µM |
| Cc1ccc(C(C)C)cc1O [carvacrol] |  | 204 µM |  |
| C=C(C)[C@@H]1CCC2=CC(=O)C[C@@H](C)[C@]2(C)C1 [nootkatone] |  | 24.7 µM |  |
| CC1(C)CCC[C@]2(C)[C@@H](C=O)C(C=O)=CC[C@@H]12 [polygodial] |  |  | whole-cell patch clamp screen (1 mM) [4]: CR518 was potently activated by terpenoids, including the physiologically-relevant sesquiterpene polygodial and furanosesquiterpene atractylon |
